Measured values as given in patent US5312816A, “Method of combatting osteoporosis in mammalian subjects, utilizing organic boron compounds” (priority 1993, dated 1994).

How the values were obtained:
Elastase [1] = assay: Mouse macrophage elastase activity; format: cell-based; conditions: 60 min incubation, read-out: Elastase IC50
Cathepsin D [2] = target: T1, Cathepsin D (Mus musculus, UniProt P18242); assay: Mouse hepatic lysosomal cathepsin D activity; format: biochemical
T1 construct: azocasein assay pH 5.0
T1 sequence (P18242 65-410): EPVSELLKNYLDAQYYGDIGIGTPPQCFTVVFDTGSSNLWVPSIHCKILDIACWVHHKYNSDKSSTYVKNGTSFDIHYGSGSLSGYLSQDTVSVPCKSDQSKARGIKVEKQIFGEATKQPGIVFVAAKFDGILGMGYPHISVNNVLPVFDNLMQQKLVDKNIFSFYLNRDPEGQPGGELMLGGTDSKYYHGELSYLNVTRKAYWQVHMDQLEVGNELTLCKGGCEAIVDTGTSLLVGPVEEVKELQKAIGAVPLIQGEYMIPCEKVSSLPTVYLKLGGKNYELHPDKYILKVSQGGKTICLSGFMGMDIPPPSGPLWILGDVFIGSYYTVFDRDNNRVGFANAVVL
Excerpt: (§1) 1. Cf1 male mouse hepatic 10% homogenates in 0.25M sucrose+0.001MEDTA,pH 7.2.
(§2) Lysosomal Enzymes - free and total [triton X-100].
(§3) 2. Acid Cathepsin D -azocasein-pH 5.0, hydrolytic azo-peptide produce 366 nm.
Cathepsin azo casein activity -

Aryl sulphatase [3] = assay: Mouse macrophage aryl sulphatase activity; format: cell-based; conditions: 60 min incubation, read-out: Aryl Sulphatase IC50
[4] = tested on: Prostaglandin cyclooxygenase; assay: Mouse macrophage prostaglandin cyclooxygenase activity; format: cell-based; conditions: 60 min incubation, read-out: Prostaglandin Cyclooxygenase IC50
Excerpt: (§4) 3. Mouse macrophages J774A.1 BALB/c
Prostaglandin synthetase purified beef seminal vesicle ^3 H arachidonic acid (86.2 Ci/mmol), tlc separation.

Cf1 male mice [5] = assay: Anti-inflammatory screen, Winter's test, 2% carrageenan hind foot; format: in vivo; conditions: Table XIV; unit inferred; unit assumed
Procedure: Anti-inflammatory Screen- Cf1 - male mice-Winter's Test 2% carrageenan S.C. plantar surface of hind foot, drugs administered @8 or 10 mg/kg I.P. 2X
Winter, C.A., et al, Proc. Soc.

Aryl sulphatase [6] = assay: Mouse hepatic lysosomal aryl sulphatase activity; format: biochemical; conditions: Table XV, 60 min incubation
Excerpt: as §1, §2
(§5) 3. Aryl sulphatase- p-nitrocatechol sulfate, pH
(§6) 5. 8 p-nitro-catechol product 510 nm.

[7] = tested on: Prostaglandin cyclooxygenase; assay: Human osteoporosis fibroblasts prostaglandin cyclooxygenase activity; format: cell-based; conditions: Table XI, 60 min incubation, read-out: Prostaglandin Cyclooxygense IC50
Trypsin [8] = assay: Mouse macrophage trypsin (BAEE) activity; format: cell-based; conditions: 60 min incubation, read-out: Trypsin BAEE IC50
Sprague Dawley male rats [9] = assay: Chronic adjuvant arthritis screen, Mycobacterium butyricum; format: in vivo; conditions: Table XIV; unit not given
Sprague Dawley Rats = assay: Anti-inflammatory activity in Sprague Dawley rats; format: in vivo; conditions: Table IV; 8 mg/kg I.P.
Elastase [10] = assay: Human osteoporosis fibroblasts elastase activity; format: cell-based; conditions: Table XI; human osteoporosis fibroblasts, 60 min incubation; read-out: Elastase IC50
Excerpt: 2. Elastase- N-succinyl-L-alanyl-L-alanine-p-nitroanilide, pH 8.0, p-nitro anilide 410 nm.

Acid phosphatase [11] = assay: Mouse macrophage acid phosphatase activity; format: cell-based; conditions: 60 min incubation, read-out: Acid Phosphatase IC50
Trypsin [12] = assay: Human osteoporosis fibroblasts trypsin (BAEE) activity; format: cell-based; conditions: Table XI; human osteoporosis fibroblasts, 60 min incubation; read-out: Trypsin BAEE IC50
Excerpt: (§7) 1. Trypsin- N-benzoyl-L-arginine ethyl ester pH 8.0, hydrolytic product 253 nm.

Cathepsin D [13] = target: T2, Cathepsin D (Homo sapiens, UniProt P07339); assay: Human osteoporosis fibroblasts cathepsin D (azo-casein) activity; format: cell-based; conditions: Table X; human osteoporosis fibroblasts, DMEM +10% FCS + P/S; read-out: Cathepsin D IC50
T2 construct: azocasein assay pH 5.0
T2 sequence (P07339 65-412): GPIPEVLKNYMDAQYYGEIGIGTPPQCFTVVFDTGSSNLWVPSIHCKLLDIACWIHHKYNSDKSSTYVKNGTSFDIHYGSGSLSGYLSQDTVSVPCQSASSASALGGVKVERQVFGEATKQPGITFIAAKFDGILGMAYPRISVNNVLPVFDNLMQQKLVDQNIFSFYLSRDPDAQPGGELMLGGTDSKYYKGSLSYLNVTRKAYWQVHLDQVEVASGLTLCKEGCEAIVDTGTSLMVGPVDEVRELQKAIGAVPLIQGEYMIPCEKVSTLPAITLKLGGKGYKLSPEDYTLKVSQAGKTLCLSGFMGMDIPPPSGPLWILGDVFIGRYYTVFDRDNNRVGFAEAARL
Excerpt: Osteoporosis Human Fibroblast-CRL-1140, Be SA1

Cf1 male mice [14] = assay: Writhing reflex, 0.6% acetic acid; format: in vivo; conditions: Mus musculus, ip; Table IV
Cathepsin D [15] = target: T1, Cathepsin D; assay: Mouse macrophage cathepsin D activity; format: cell-based; conditions: Table XVII; mouse macrophage, 60 min incubation; read-out: Cathepsin D pH 5.0 IC50
Excerpt: as §4, §3

Acid phosphatase [16] = assay: Mouse hepatic lysosomal acid phosphatase activity; format: biochemical; conditions: Table XV; mouse hepatic, 60 min incubation
Excerpt: as §1, §2
(§8) 1. Acid phosphatase -beta glycerol-3-phosphate, pH 5.0, released IP 720 nm.
Acid phosphatase activity -

Aryl sulphatase [17] = assay: Human osteoporosis fibroblasts aryl sulphatase activity; format: cell-based; conditions: Table X; human osteoporosis fibroblasts; read-out: Aryl Sulphatase IC50
Excerpt: as §5, §6

Acid phosphatase [18] = assay: Human osteoporosis fibroblasts acid phosphatase activity; format: cell-based; conditions: Table X; human osteoporosis fibroblasts; read-out: Acid Phosphatase IC50
Excerpt: as §8

Cf1 male mice [19] = assay: Hot plate tail flick test; format: in vivo; conditions: Table XIV; unit not given
Cf1 male mice [20] = assay: Writhing reflex, 0.6% acetic acid; format: in vivo; conditions: Table XIV; unit inferred; unit assumed
Procedure: Writhing reflex- Cf1 -male mice- 0.6% acetic acid I.P. drugs administered @20 mg/kg/ I.P. 20 min. later - the # of stretches/10 min.
Hendershot, L.C., et al, J.

Sprague Dawley male rats [21] = assay: Anti-pleurisy screen, Evans blue + carrageenan; format: in vivo; conditions: Table XIV; unit not given
Pg. cyclooxygenase = target: T3, Pg. cyclooxygenase (Sus scrofa, UniProt A0A287ANF9); assay: Porcine seminal vesicles Pg. cyclooxygenase; format: biochemical; conditions: Table XVI; 60 min incubation
T3 construct: Porcine Seminal; from tissue; the methods section prints beef seminal vesicle
T3 sequence (A0A287ANF9 25-600): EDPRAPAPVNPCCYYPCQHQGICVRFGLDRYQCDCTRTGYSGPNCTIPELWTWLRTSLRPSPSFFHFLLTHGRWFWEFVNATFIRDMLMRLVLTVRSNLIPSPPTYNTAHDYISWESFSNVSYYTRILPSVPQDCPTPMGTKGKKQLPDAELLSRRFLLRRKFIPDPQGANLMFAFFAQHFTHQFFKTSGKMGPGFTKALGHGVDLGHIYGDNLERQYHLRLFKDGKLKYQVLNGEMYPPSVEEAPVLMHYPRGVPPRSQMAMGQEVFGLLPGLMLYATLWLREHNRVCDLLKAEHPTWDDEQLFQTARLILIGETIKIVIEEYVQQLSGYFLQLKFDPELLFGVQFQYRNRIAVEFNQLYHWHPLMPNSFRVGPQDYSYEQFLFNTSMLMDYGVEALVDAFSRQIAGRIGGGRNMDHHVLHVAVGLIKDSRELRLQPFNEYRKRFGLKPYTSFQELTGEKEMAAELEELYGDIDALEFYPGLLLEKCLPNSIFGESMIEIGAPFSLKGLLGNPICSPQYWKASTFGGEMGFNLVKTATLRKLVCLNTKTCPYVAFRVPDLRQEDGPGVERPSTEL

Commercial Collagenase = assay: Commercial collagenase (type not stated); format: biochemical; conditions: Table XVI; 60 min incubation
Excerpt: 3. Collagenase I, Clostridium histolyticum, bone, skin, tendon, blood vessel, dentine, GI. substrate: rat collagen, N-[propionate-2-3-^3 H] propionylated measured as dpm released.
4. Collagenase II, Clostridium histolyticum, cartilage collagen.

Trypsin [22] = assay: Mouse hepatic trypsin activity; format: biochemical; conditions: Table XVI; 60 min incubation; read-out: Mouse Hepatic Trypsin IC50
Excerpt: as §1, §7

Cathepsin = assay: Human leukocyte cathepsin; format: cell-based; conditions: Table XIX; read-out: Human Leukocyte IC50 (head gives no enzyme; beside Cathepsin D)
Excerpt: 5. Human peripheral leukocytes, RPMI-1788
as §3

5'-Lipoxygenase = target: T4, 5'-Lipoxygenase (Homo sapiens, UniProt P09917); assay: Human leukocyte 5'-lipoxygenase; format: cell-based
T4 construct: human leukocyte tissue culture cells; endogenous in cells; host or cells: Human peripheral leukocytes, RPMI-1788
T4 sequence (P09917 1-674): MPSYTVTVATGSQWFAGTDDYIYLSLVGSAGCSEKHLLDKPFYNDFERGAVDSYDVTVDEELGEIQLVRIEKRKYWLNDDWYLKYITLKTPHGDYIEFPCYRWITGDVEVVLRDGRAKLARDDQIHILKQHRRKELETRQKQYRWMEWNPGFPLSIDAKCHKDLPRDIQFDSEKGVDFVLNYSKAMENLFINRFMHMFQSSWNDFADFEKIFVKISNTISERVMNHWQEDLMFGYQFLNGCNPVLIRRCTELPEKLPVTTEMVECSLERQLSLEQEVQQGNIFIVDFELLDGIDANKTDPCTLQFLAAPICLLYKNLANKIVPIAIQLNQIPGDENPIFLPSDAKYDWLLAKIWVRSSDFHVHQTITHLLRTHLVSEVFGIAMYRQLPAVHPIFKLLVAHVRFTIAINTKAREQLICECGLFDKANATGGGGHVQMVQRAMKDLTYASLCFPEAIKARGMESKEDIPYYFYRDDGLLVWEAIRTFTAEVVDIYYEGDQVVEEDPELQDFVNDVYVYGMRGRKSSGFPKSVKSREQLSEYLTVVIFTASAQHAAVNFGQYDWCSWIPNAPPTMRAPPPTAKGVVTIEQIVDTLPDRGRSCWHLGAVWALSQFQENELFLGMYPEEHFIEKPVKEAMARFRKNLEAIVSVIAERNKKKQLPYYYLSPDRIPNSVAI

[23] = Table XV, mouse hepatic, 60 min incubation, read-out: Cathepsin D IC50
[24] = Table VII, mouse macrophage cultured cells

SMILES	IC50 (Elastase [1]; Table XVIII, mouse macrophage) [µM]	IC50 (Cathepsin D [2]; [23]) [µM]	IC50 (Aryl sulphatase [3]; Table XVII, mouse macrophage) [µM]	IC50 ([4]; Table XVIII, mouse macrophage) [µM]	Anti-Inflammation Cf1 Mice (Cf1 male mice [5]) [%]	IC50 (Aryl sulphatase [6]) [µM]	IC50 (Trypsin [8]; Table XVIII, mouse macrophage) [µM]	Anti-Arthritis Rats (Sprague Dawley male rats [9])	IC50 (Acid phosphatase [11]; Table XVII, mouse macrophage) [µM]	IC50 (Cathepsin D [15]) [µM]	IC50 (Acid phosphatase [16]) [µM]	Tail Flick Mice (Cf1 male mice [19])	Writhing Reflex Mice (Cf1 male mice [20]) [%]	Anti-Pleurisy Rats (Sprague Dawley male rats [21])	IC50 (Pg. cyclooxygenase) [µM]	IC50 (Commercial Collagenase) [µM]	IC50 (Trypsin [22]) [µM]	also measured
BC(=O)O [Compound 13]	3.07	6.19	5.43	15.6	41.7	4.34	2.25	55.2	0.82	4.57	4							IC50 (Elastase [1]; Table VIII, mouse macrophages): 3.07 µM; IC50 (Aryl sulphatase [3]; [24]): 5.43 µM; IC50 ([4]; Table VIII, mouse macrophages): 6.79 µM; IC50 [7]: 5.51 µM; IC50 (Trypsin [8]; Table VIII, mouse macrophages): 2.25 µM; Anti-Inflammatory Activity Sprague Dawley Rats (Sprague Dawley Rats): 55 % Control; IC50 (Elastase [10]): 3.01 µM; IC50 (Acid phosphatase [11]; [24]): 0.82 µM; IC50 (Trypsin [12]): 7.51 µM; IC50 (Cathepsin D [13]): 1.19 µM; response vs control in vivo at 20 mg/kg (Cf1 male mice [14]): 17.4%; IC50 (Aryl sulphatase [17]): 8.19 µM; IC50 (Acid phosphatase [18]): 6.5 µM
CC(C)=O.C[N+](C)(C)[BH2-]C(=O)[O-].O=[N+]([O-])[O-].[Ca+2] [Compound 28]	5.93	4.58	2.38	1.92	65	3.05	2.38		3.08	2.38	7.66	169	66.4	50.1	2.57	495	9.99	
CC(C)[Si](OC[C@H]1O[C@@H](n2ccc(N)[n+]([BH2-]C#N)c2=O)C[C@@H]1O[Si](C(C)C)(C(C)C)C(C)C)(C(C)C)C(C)C [Compound 40]																		IC50 (Cathepsin D [2]; read-out: Mouse Hepatic Cathepsin D IC50, Table XIX): 27.2 µM; IC50 (Cathepsin): 6.12 µM; IC50 (5'-Lipoxygenase): 3.88 µM
C[N+](C)(C)[BH2-]C(=O)[O-].C[N+](C)(C)[BH2-]C(=O)[O-].NCCN.NCCN.[Cl-].[Co+3] [Compound 27]	9.77	7.8	1.95	2.09	49.6	5.89	1.38	70.0	2.92	3.83	4.25	150	66.2	96.3	4.01	522	9.88	
